Calls of active or inactive are those of the source.
Columns and labels:
[1] = molecular target: Voltage-dependent T-type calcium channel subunit alpha-1H (Homo sapiens, UniProt O95180); format: functional;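 further: channel activity triggered by adding a high calcium stimulation buffer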
[2] = test system: Streptococcus; assay: GAS UMAA2166 growth inhibition – luminescence, BacTiterGlo, counter-screen for streptokinase expression inhibitor project, dose response (AID 1915); format: functional, organism-based;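 further: potency for reduction of bacterial viability or growth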
[3] = test system: Streptococcus sp. 'group A'; assay: Streptococcus pyogenes SK(-)GAS viability under kanamycin – luminescence, BacTiterGlo, confirmation, counter-screen for streptokinase expression inhibitor project, dose response (AID 1900); format: functional, organism-based
[4] = molecular target: T1, Streptokinase A (Streptococcus pyogenes serotype M1, UniProt P10520); assay: viability-normalized secreted streptokinase activity reduction – plasminogen activation absorbance, OD405, dose response (AID 1914); format: functional, Streptococcus pyogenes M1 GAS;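 further: secreted streptokinase activity via plasminogen activation per viability signal from cell pellet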
T1 sequence (P10520 whole entry): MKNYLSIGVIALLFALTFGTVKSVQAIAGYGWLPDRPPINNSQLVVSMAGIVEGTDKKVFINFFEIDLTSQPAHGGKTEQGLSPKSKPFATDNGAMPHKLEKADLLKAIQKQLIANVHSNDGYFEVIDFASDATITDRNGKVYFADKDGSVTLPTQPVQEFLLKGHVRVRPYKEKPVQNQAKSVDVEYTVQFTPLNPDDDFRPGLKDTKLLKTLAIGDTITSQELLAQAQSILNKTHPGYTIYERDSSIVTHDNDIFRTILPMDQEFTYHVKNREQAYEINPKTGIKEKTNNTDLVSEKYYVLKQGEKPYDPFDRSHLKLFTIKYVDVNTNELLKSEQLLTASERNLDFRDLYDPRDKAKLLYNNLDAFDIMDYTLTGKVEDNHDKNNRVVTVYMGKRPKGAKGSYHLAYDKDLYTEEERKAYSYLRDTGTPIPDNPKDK

[5] = off-target signal loss in HeLa-CEM21 co-culture – HeLa F-luc CTL cells, cherry-picked, counter-screen for HIV-1 Env fusion inhibitor project, dose response (AID 652040); format: functional, cell-based;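 further: potency for signal decrease marking cytotoxic or nonspecific inhibition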
[6] = blockers of HIV-1 ZM109 envelope-driven cell-cell fusion – HeLa effector, CEM target cells, luciferase, cherry-pick, dose response (AID 652058); format: functional, cell-based;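 further: luciferase signal from HIV-1 Env mediated cell-cell fusion of effector and target cells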
[7] = blockers of HIV-1 envelope-mediated cell-cell fusion – cherry-pick, dose response (AID 652057); format: functional, cell-based
[8] = HIV-1 AD8 envelope cell-cell fusion blockers – cherry-pick, dose response (AID 652062); format: functional, cell-based;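 further: luciferase signal from cell-cell fusion driven by HIV-1 clade B AD8 Env; potency is for inhibitors of fusion seen as a drop in luminescence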
[9] = molecular target: DNA dC->dU-editing enzyme APOBEC-3G (Homo sapiens, UniProt Q9HC16); format: functional;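 further: Dose-response counterscreen measuring inhibition of APOBEC3G DNA deaminase activity, run while confirming APOBEC3A inhibitors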
Sequence of DNA dC->dU-editing enzyme APOBEC-3G (Q9HC16 whole entry): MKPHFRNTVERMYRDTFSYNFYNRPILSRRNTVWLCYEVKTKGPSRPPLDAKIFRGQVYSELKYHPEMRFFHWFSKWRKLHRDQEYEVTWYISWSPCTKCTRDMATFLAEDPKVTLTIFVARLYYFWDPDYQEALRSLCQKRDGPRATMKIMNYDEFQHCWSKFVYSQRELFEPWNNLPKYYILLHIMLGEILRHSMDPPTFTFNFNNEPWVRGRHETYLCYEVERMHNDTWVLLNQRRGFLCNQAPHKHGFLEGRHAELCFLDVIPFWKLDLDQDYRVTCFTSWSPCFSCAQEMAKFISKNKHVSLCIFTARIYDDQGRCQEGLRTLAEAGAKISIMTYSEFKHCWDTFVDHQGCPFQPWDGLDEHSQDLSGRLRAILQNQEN

[10] = molecular target: DNA dC->dU-editing enzyme APOBEC-3A (Homo sapiens, UniProt P31941); assay: Dose Response confirmation of small molecule APOBEC3A DNA Deaminase Inhibitors via a fluorescence-based single-stranded DNA deaminase assay. [Related pubchem assays (depositor defined):AID493011, AID493024]; format: functional
Sequence of DNA dC->dU-editing enzyme APOBEC-3A (P31941 whole entry): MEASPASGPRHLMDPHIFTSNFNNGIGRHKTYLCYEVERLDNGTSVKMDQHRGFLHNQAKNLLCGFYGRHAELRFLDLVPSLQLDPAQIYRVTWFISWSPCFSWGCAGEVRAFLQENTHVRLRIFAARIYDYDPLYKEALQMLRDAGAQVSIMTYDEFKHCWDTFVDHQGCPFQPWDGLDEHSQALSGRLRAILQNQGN

[11] = molecular target: T2, Cytochrome P450 1A2 (Homo sapiens, UniProt P05177);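 further: PubChem cytochrome P450 panel assay, CYP1A2 panel member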
T2 sequence (P05177 whole entry): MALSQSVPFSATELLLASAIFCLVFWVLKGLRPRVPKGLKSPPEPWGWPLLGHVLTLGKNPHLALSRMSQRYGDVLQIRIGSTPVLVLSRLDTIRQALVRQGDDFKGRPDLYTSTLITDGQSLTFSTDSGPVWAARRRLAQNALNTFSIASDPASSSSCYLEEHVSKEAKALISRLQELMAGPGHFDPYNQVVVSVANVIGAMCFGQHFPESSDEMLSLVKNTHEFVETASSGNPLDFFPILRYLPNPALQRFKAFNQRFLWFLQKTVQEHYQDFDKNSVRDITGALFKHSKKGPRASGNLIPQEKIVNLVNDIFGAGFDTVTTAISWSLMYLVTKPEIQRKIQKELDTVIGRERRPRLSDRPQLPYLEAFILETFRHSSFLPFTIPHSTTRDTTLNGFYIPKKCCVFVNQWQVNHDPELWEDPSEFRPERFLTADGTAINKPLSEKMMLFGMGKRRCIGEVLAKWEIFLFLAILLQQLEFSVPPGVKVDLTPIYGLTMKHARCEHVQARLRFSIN

[12] = molecular target: Cytochrome P450 3A4 (Homo sapiens, UniProt P08684);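 further: CYP3A4 tested as one member of a cytochrome P450 panel screen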
Sequence of Cytochrome P450 3A4 (P08684 whole entry): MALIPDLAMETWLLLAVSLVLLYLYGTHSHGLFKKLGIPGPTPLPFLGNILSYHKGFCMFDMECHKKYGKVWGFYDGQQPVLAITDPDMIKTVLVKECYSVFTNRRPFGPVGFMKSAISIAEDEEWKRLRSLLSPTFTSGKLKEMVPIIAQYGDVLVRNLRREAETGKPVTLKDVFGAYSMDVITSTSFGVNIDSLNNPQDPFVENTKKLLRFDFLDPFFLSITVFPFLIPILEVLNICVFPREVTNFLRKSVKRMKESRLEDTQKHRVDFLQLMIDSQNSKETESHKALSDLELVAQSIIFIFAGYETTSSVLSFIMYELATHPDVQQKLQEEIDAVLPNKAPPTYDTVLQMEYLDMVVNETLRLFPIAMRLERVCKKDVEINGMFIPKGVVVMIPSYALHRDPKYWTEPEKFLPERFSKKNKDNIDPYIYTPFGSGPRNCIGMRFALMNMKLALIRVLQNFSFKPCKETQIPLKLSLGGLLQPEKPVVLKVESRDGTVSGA

[13] = molecular target: T3, Long-chain-fatty-acid--AMP ligase FadD28 (Mycobacterium tuberculosis, UniProt P9WQ59); assay: Fluorescence polarization aasay to screen for inhibitors that compete for the binding of FadD28 to a bisubstrate Measured in Biochemical System Using Plate Reader - 2147-01_Inhibitor_Dose_CherryPick_Activity.; format: functional, Mycobacterium tuberculosis H37Rv
T3 sequence (P9WQ59 whole entry): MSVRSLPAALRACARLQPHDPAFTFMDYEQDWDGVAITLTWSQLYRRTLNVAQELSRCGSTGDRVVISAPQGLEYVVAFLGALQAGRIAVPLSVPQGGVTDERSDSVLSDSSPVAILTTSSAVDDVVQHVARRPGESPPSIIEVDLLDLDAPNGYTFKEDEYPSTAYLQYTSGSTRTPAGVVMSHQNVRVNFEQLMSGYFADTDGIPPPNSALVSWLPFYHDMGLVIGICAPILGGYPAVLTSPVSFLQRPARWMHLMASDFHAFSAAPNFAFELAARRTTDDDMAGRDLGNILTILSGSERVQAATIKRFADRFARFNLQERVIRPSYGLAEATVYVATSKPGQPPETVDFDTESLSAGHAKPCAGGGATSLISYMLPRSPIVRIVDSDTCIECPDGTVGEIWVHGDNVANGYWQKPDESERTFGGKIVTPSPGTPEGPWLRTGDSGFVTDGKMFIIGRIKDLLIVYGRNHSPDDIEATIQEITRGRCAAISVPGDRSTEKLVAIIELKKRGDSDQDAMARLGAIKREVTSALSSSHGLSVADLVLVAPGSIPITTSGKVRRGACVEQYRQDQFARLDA

[14] = test system: INS1; assay: INS-1E survival protection against cytokine death – cell-based, luminescence, retest, dose response (AID 449756); format: functional; conditions: Rattus norvegicus;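 further: cell death triggered by IL-1 beta plus TNF-alpha plus IFN-gamma mixture; protective hits raise ATP signal compared with cytokine alone wells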
[15] = Trypanosoma cruzi growth suppression in host cells – NIH3T3 host cells, beta-gal luminescence, confirmation (AID 2044); format: functional, cell-based;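 further: intracellular parasites grown in NIH/3T3 mouse fibroblasts as host cells; luminescent beta-galactosidase reporter signal from transgenic T. cruzi replicating inside host cells; inhibitors lower the luminescence signal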
[16] = NIH3T3 cell viability loss – ATP luminescence, mouse fibroblasts, counter-screen, dose response (AID 2010); format: functional, cell-based;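 further: cells exposed to compound for about 90 hours before reading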
[17] = molecular target: T4, Heat shock factor protein 1 (Mus musculus, UniProt P38532); assay: enhancement of HSF1-driven luciferase signal – cell-based, NIH3T3, luminescence, dose retest, confirmation (AID 435004); format: functional;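 further: stress induced by proteasome inhibitor MG132 added 30 min after compound; luciferase reporter driven by HSF1 response element in NIH3T3 cells; actives raise luminescence as potentiators of the MG132 stress response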
T4 sequence (P38532 whole entry): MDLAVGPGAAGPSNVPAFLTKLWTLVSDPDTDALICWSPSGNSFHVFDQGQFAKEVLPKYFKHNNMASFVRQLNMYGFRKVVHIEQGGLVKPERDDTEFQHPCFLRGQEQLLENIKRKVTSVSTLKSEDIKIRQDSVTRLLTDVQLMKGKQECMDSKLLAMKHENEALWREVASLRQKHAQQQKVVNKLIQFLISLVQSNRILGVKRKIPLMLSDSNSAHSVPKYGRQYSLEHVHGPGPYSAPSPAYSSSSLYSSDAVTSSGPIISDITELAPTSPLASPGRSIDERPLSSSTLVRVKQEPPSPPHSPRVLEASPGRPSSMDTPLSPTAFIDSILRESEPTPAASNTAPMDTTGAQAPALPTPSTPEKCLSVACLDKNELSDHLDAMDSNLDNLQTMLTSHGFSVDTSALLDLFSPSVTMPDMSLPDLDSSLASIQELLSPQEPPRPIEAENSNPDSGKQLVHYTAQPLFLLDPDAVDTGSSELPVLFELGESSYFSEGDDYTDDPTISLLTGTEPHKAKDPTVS

[18] = viability of uninfected HEp-2 cells – cell-based, HTS, cytotoxicity control for RSV inhibitor project, dose response (AID 2410); format: functional; conditions: human respiratory syncytial virus
[19] = cells; format: functional
[20] = molecular target: T5, Calpain-2 catalytic subunit (Sus scrofa, UniProt P43367); assay: m-calpain protease blockers, concentration series – biochemical, fluorogenic peptide substrate, dose response (AID 1420); format: functional
T5 sequence (P43367 whole entry): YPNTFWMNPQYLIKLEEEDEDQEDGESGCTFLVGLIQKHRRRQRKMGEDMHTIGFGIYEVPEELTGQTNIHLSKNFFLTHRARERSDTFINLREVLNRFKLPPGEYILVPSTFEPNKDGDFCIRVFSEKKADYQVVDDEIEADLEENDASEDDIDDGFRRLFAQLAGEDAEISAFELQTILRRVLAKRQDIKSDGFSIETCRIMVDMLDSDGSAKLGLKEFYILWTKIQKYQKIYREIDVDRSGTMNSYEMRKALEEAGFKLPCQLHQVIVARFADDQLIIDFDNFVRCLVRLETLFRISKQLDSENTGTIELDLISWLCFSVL

[21] = molecular target: Paired box protein Pax-8 (Homo sapiens, UniProt Q06710); assay: PAX8 transcriptional activity inhibition in RMG-I – RMG-I cells, luciferase, cherry-pick, dose response (AID 687027); format: functional, cell-based;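 further: luciferase reporter driven by Pax8 target thyroperoxidase promoter measured by SteadyGlo luminescence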
Sequence of Paired box protein Pax-8 (Q06710 whole entry): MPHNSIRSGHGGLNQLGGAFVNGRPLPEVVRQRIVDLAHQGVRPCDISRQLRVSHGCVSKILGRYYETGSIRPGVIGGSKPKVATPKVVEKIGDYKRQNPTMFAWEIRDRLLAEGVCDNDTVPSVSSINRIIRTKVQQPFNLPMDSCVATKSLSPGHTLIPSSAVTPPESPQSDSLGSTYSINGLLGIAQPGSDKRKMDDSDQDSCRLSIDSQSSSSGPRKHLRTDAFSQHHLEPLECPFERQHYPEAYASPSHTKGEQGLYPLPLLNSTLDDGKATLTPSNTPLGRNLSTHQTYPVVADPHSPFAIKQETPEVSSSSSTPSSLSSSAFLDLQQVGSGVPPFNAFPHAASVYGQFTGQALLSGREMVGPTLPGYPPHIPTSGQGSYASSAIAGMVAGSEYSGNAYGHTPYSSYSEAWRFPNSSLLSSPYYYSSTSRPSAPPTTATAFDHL

[22] = molecular target: Cytochrome P450 2D6 (Homo sapiens, UniProt P10635);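 further: CYP2D6 member of a cytochrome P450 panel assay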
Sequence of Cytochrome P450 2D6 (P10635 whole entry): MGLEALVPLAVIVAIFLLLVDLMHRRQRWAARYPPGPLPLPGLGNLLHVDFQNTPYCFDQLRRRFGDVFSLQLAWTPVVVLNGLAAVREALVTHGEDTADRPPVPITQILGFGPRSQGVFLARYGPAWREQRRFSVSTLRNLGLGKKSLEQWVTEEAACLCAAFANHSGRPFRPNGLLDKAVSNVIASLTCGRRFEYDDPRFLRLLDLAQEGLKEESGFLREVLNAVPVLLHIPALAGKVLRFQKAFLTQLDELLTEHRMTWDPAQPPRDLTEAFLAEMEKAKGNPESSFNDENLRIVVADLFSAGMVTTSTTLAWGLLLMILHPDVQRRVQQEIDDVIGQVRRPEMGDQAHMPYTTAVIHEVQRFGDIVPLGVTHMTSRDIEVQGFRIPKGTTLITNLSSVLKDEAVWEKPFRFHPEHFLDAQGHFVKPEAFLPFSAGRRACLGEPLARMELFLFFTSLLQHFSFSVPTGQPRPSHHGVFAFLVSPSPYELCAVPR

[23] = molecular target: Cytochrome P450 2C9 (Homo sapiens, UniProt P11712)
Sequence of Cytochrome P450 2C9 (P11712 whole entry): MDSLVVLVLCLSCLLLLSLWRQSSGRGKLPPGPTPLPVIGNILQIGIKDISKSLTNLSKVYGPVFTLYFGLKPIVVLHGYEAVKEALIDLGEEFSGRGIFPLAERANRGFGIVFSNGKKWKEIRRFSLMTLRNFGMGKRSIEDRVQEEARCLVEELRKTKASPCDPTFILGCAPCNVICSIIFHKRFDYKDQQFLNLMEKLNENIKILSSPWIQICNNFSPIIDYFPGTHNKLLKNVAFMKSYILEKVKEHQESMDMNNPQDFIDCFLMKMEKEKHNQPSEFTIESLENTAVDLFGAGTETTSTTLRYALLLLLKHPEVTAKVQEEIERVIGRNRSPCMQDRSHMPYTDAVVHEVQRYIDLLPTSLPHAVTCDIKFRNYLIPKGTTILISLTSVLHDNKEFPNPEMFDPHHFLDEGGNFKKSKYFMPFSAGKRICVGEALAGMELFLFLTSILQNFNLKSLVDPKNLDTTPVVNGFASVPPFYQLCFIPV

Sequence of Voltage-dependent T-type calcium channel subunit alpha-1H (O95180 whole entry): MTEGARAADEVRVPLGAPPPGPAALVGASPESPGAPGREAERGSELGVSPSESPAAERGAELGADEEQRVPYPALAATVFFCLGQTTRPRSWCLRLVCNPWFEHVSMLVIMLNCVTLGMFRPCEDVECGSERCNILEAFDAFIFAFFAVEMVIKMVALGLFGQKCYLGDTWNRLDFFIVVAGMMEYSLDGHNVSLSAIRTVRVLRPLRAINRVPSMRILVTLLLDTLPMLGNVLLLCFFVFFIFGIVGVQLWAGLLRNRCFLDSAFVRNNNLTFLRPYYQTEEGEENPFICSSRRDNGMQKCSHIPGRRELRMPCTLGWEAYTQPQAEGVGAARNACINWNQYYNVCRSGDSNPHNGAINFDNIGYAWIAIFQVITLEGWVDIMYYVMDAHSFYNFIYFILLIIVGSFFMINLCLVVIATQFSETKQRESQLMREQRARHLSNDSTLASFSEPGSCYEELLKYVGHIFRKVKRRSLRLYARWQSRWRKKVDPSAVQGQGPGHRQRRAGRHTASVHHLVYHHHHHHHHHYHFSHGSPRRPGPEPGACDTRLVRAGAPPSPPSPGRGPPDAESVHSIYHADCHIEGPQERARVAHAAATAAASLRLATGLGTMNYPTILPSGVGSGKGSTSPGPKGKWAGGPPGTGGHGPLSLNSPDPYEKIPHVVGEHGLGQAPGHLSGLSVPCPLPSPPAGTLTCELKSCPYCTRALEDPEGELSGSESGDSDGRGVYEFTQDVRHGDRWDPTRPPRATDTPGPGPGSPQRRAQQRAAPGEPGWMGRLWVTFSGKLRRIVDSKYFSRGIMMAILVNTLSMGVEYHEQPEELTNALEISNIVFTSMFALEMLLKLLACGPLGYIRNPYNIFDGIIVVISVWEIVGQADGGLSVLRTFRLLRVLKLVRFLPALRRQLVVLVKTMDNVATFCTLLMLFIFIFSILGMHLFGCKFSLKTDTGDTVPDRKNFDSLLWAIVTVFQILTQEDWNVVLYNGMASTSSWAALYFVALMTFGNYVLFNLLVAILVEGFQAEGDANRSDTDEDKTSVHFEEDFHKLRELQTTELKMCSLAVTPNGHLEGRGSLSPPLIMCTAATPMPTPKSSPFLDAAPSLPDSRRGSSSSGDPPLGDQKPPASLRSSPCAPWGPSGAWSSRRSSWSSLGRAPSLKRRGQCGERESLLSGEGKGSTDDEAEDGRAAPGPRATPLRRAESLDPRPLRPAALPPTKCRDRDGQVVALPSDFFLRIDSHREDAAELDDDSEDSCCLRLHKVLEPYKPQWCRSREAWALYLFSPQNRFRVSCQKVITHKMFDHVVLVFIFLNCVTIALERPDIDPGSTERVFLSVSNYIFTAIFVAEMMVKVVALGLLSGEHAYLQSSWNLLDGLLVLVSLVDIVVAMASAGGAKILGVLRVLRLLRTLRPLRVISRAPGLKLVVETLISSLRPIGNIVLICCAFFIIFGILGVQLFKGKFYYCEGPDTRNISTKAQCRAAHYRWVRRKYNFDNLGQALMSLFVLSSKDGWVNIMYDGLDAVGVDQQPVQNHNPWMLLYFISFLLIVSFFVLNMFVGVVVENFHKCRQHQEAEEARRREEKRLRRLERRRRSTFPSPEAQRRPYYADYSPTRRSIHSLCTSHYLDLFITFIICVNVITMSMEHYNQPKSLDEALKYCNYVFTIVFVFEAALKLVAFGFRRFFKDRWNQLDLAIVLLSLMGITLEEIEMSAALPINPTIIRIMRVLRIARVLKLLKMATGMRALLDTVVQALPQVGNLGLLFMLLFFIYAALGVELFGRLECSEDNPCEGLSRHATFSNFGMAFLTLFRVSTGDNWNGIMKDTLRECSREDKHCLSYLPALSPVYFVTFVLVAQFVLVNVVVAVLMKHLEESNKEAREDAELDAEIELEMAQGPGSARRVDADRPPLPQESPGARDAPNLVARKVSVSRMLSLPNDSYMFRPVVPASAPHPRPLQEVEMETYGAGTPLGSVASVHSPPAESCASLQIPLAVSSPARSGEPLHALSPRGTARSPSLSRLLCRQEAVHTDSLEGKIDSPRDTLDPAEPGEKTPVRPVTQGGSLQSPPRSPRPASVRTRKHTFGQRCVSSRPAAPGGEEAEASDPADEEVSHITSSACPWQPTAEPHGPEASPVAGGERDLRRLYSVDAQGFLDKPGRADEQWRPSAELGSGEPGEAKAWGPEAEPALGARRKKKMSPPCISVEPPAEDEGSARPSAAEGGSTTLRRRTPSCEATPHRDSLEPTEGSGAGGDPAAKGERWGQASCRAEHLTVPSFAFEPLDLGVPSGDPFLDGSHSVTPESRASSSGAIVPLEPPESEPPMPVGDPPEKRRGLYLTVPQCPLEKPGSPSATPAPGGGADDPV

For O=C(CN1CCc2ccccc2C1)Nc1ccccc1N1CCCCCC1, the EC50 [1] was 8.39 µM (active), the EC50 [2] was 13.3 µM (active) and the EC50 [3] was 6.54 µM (active). The EC50 [4] was 13 µM (active).
In the case of Cc1ccc(N2C(=O)N3[C@H](c4cccc(C)c4)[C@@H]4C(=O)N(Cc5ccccc5)C(=O)[C@@H]4[C@]3(C)C2=O)cc1, the AC50 [5] is reported as 3.88 µM (active), the AC50 [6] is reported as 1.2 µM (active) and the AC50 [7] is reported as 3.36 µM (active). For the same molecule, the AC50 [8] was 2.33 µM (active).
In the case of O=C(Nc1ccc(N2CCN(C(=O)c3ccccc3)CC2)c(Cl)c1)c1cccnc1, the AC50 [5] is reported as 20.5 µM (active), the EC50 [2] is reported as 14.7 µM (active) and the EC50 [3] is reported as 12.4 µM (active). For the same molecule, the EC50 [4] was > 150 µM (not active) and the AC50 [8] was 12.6 µM (active).
With Cc1ccc2cc(C#N)c(NCCNC(=O)C3CC3)nc2c1C the AC50 [5] was 2.96 µM (active), the AC50 [6] was 4.47 µM (active) and the AC50 [7] was 4.5 µM (active). The AC50 [8] was 6.25 µM (active).
With O=C(CCC1N=C2c3ccccc3N=C(SCc3ccccc3Cl)N2C1=O)NCc1ccco1 (stereo not drawn) the EC50 [1] was 14 µM (active).
In the case of O=C(Nc1nnc(-c2ccc3c(c2)CCCC3)o1)C1COc2ccccc2O1 (stereo not drawn), the EC50 [1] is reported as 1.37 µM (active).
In the case of O=C(CSc1nnnn1-c1ccccc1)N1CCc2ccccc21, the IC50 [9] is reported as 4.32 µM (active) and the IC50 [10] is reported as 6.17 µM (active).
With Cc1ccc(C)c(CS(=O)(=O)c2cn(CC(=O)N3CCC(C)CC3)c3ccccc23)c1 the AC50 [5] was 3.13 µM (active), the AC50 [6] was 3.03 µM (active) and the AC50 [7] was 2.82 µM (active). The AC50 [8] was 2.04 µM (active).
In the case of O=C(c1cccc(F)c1)N1CCC2(CC1)CCN(c1cccc(-c3ccccc3)c1)CC2, the AC50 [11] is reported as 20 µM (inconclusive) and the AC50 [12] is reported as “inconclusive”.
For O=C(NCCSCc1ccccc1)c1ccc(Cl)c(S(=O)(=O)N2CCOCC2)c1, the AC50 [13] was > 100 µM (inactive).
For N=c1c2c(-c3ccccc3)c(-c3ccccc3)n(Cc3ccco3)c2ncn1CCCN1CCOCC1, the AC50 [14] was 14.3 µM (active), the EC50 [15] was 1.49 µM (active) and the EC50 [16] was > 60 µM (not active). The AC50 [13] was 77.3 µM (active) and the EC50 [17] was > 260 µM (inactive).
In the case of COc1cccc(OCC(O)CN2CCC(Cc3ccccc3)CC2)c1 (stereo not drawn), the EC50 [1] is reported as 4.62 µM (active).
For CC(=O)c1ccc(S(=O)(=O)N2Cc3ccccc3CC2C(=O)O)cc1 (stereo not drawn), the IC50 [9] was 43.7 µM (active) and the IC50 [10] was 14 µM (active).
With CC(C)(C)c1ccc(OCCC(=O)Nc2cccc(S(=O)(=O)N3CCOCC3)c2)cc1 the AC50 [5] was 48.2 µM (active), the AC50 [7] was 22.2 µM (active) and the AC50 [8] was 53.1 µM (active).
With COc1ccc2[nH]c(O)c(N=O)c2c1 the IC50 [9] was 4.41 µM (active) and the IC50 [10] was 2.64 µM (active).
In the case of CC(C)(C)c1nnc(NC(=O)c2cc(-c3ccccc3)nc3ccccc23)s1, the CC50 [18] is reported as 14.1 µM (active), the AC50 [12] is reported as “inconclusive” and the EC50 [2] is reported as 49.3 µM (active). For the same molecule, the EC50 [3] was 9.69 µM (active) and the EC50 [4] was > 150 µM (not active).
In the case of Cc1ccc(CNC(=O)C(Cc2ccccc2)NS(=O)(=O)c2ccc(Br)s2)cc1 (stereo not drawn), the AC50 [13] is reported as 6.7 µM (active).
In the case of CN1CCN(c2ccc(Cl)cc2NC(=O)CC2OC(=O)c3ccccc32)CC1 (stereo not drawn), the IC50 [9] is reported as 2.9 µM (active) and the IC50 [10] is reported as 3.24 µM (active).
With CC(/C=C(\O)c1ccncc1)=N\c1ccccc1O the IC50 [19] was 3.1 µM (active) and the EC50 [1] was 3.26 µM (active).
In the case of COc1cc(/C=N/NS(=O)(=O)c2ccc(C)cc2)ccc1OCc1ccc(C(=O)O)cc1, the AC50 [5] is reported as 3.18 µM (active), the IC50 [20] is reported as > 50 µM (not active) and the AC50 [6] is reported as 16.1 µM (active). The AC50 [21] was 23.9 µM (active), the AC50 [7] was 2.5 µM (active) and the AC50 [8] was 8.31 µM (active).
With Cc1c(C2CCN(CCc3ccccc3)CC2)noc1-c1ccc(Cl)cc1 the AC50 [11] was 25.1 µM (inconclusive), the AC50 [22] was 1.58 µM (inconclusive) and the AC50 [12] was “inconclusive”.
In the case of Cc1cccc(C)c1NC(=O)CN1CCN(CCCC(c2ccc(F)cc2)c2ccc(F)cc2)CC1 [LIDOFLAZINE], the AC50 [11] is reported as 15.8 µM (inconclusive), the AC50 [23] is reported as 15.8 µM (inconclusive) and the AC50 [12] is reported as “inconclusive”.
